One data set deals with E. coli ATCC 25922. Briefly: SEM analysis of bacterial agglutination. The class given is cell-based, Escherichia coli. Conditions: 3 µM proHD6 treated with trypsin before incubation (trypsin inactivated with APMSF), 30 min, 50 mM Tris-maleate pH 6.4. As to the method:
(§1) Fig. 3 TEM analysis of HD6 self-assembly and SEM analysis of bacterial agglutination. Top row: transmission electron micrographs of 10 mM sodium phosphate pH 7.4 (control), 0.4 μM trypsin (control), 20 μM proHD6 in the absence and presence of 0.4 μM trypsin, and 20 μM HD6. All the samples were incubated at room temperature for 1 h. Scale bar = 100 nm. TEM images obtained using 10 mM Tris-maleate pH 6.4 are presented in Fig. S7. ^† Middle row: scanning electron micrographs of E. coli ATCC 25922 treated with 50 mM Tris-maleate pH 6.4 (control), 0.4 μM APMSF-inactivated trypsin (control), 3 μM proHD6, 3 μM trypsin-cleaved proHD6, or 3 μM HD6. Trypsin-cleaved proHD6 was prepared prior to incubation with the bacteria and the residual enzymatic activity was inhibited by APMSF (Experimental section). Following a 30 min incubation, the bacterial suspensions were centrifuged, fixed, and analyzed by SEM. Scale bar = 20 μm. Bottom row: SEM of L. monocytogenes ATCC19115 treated under the same conditions as in the middle row. Scale bar = 20 μm.
Bacteria were grown aerobically at 37 °C overnight in LB media. The next morning the strains were subcultured and grown to mid-logarithmic phase in LB media. […]

A short description of data set [1]: Negative-staining TEM of peptide self-assembly. The class given is physicochemical. Conditions: for fibrils (TEM), time course of trypsin treatment: room temperature, 10 mM sodium phosphate pH 7.4. How it is done: as §1
The samples for TEM were prepared by following a literature protocol.[15] For each sample, a 5 μL aliquot of peptide solution (20 μM in 10 mM sodium phosphate pH 7.4 or 10 mM Tris-maleate pH 6.4) was placed onto the carbon-coated surface of a copper grid (400 square mesh, Electron Microscopy Sciences). After 1 min, the grid was washed with a 5 μL aliquot of Milli-Q water, stained with a 5 μL aliquot of 2% uranyl acetate (UA, Electron Microscopy Sciences) in Milli-Q water three times, and air-dried for at least 15 min before imaging. A FEI Technai Spirit Transmission Electron Microscope was employed for all TEM imaging (W.M. Keck Microscopy Facility, Whitehead Institute, Cambridge, MA). TEM images were obtained with at least two independently prepared peptides and representative images are presented.
Figure S7. TEM analysis of trypsin-catalyzed proteolysis of proHD6 in Tris-maleate buffer.
Transmission electron micrographs of 10 mM Tris- maleate pH 6.4 (control), 0.4 µM trypsin (control), 20 µM proHD6 in the absence and presence of 0.4 µM trypsin, and 20 µM HD6. All samples were incubated at room temperature for 1 h. Scale bar = […].
Figure S8. Time course of trypsin-catalyzed proteolysis of proHD6 monitored by TEM.
Transmission electron micrographs of 20 µM proHD6 after treatment with 0.4 µM trypsin at room temperature for the indicated time. All the samples were in 10 mM sodium phosphate […]

Regarding “EPLQAEDDPLQAKAYEADAQEQRGANDQDFAVSFAEDASSSLRALGSTRAFTCHCRRSCYSTEYSYGTCTVMGINHRFCCL (disulfide (positions not given here)) [proHD6, 81-residue propeptide of human α-defensin 6, recombinant, from His6-SUMO-proHD6]”, in the data set on E. coli ATCC 25922, the “bacterial agglutination (SEM), trypsin-cleaved” value is “entangled and agglutinated E. coli”. Besides, in data set [1] (20 µM peptide, 10 mM sodium phosphate pH 7.4 or 10 mM Tris-maleate pH 6.4, room temperature 1 h, no trypsin), the “formation of higher-order oligomers (TEM)” value is reported as “no evidence for the formation of higher-order oligomers”. The “fibrils (TEM), time course of trypsin treatment” value in data set [1] (20 µM proHD6 + 0.4 µM trypsin, 5 min) is “relatively short fibrils”; in data set [1] (20 µM proHD6 + 0.4 µM trypsin, 60 min), “closely resembled those of mature HD6”. Further, the “formation of fibrils (TEM) after addition of trypsin” value in data set [1] (20 µM proHD6 + 0.4 µM trypsin, room temperature 1 h, 10 mM sodium phosphate pH 7.4 or 10 mM Tris-maleate pH 6.4) is “fibril-like features comparable to those observed for the mature HD6 peptide”.
